Experimental data: patent US10233180B2, “Substituted nitrogen-containing heterocyclic derivatives, pharmaceutical compositions comprising the same and applications of antitumor thereof” (ZHEJIANG UNIVERSITY, priority 2014, dated 2019)

Experiments:
[1] = test system: Human ovarian cancer cell strain OVCAR-8; experiment: MTT assay, inhibition of tumor cell growth in vitro, 72 h; assay type: cell-based; conditions: Homo sapiens, OVCAR-8, MTT, read-out: Antitumor proliferative activities of tumor cell (IC50, μM) OVCAR-8
In short: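 OVCAR8 cells in RPMI 1640 plus FBS were seeded at 4000 cells/well and exposed for 72 h at 37 °C to compound at 50, 10, 2, 0.4 and 0.08 μM final, with 1% DMSO as blank. Inhibition was calculated from OD relative to control, and IC50 was derived by the Bliss method.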

Akt1 = biological target: T1, Akt1 (Homo sapiens, UniProt P31749); experiment: AKT1/PKBα KinEASE FP Fluorescein Green Assay (fluorescence polarization kinase kit); assay type: biochemical; conditions: 1 h reaction, read-out: Inhibitory activities against Akt1 (IC50)
T1 construct: purchased 32-021
T1 sequence (P31749 whole entry): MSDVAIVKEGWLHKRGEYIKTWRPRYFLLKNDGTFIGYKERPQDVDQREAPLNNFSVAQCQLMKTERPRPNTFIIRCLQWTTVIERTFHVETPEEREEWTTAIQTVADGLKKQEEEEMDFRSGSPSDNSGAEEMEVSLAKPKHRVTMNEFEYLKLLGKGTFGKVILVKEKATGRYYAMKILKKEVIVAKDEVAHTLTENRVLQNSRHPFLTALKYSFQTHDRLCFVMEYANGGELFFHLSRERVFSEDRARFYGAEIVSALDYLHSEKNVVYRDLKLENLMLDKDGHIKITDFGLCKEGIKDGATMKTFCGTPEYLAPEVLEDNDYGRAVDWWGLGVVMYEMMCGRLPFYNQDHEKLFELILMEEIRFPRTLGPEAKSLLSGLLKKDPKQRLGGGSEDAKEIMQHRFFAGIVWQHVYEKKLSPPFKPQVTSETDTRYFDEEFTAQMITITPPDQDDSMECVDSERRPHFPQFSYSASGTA
In short: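 FP competition kinase assay: compounds (50 μM stock) with STK Substrate 3 and ATP, 1 h reaction at room temperature; stopped with stop/antibody mix, 4 h at room temperature, then polarization read. Inhibition derived from polarization values; IC50 calculated; triplicate wells.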

[2] = test system: human colon cancer cell strain HCT-116; experiment: MTT assay, inhibition of tumor cell growth in vitro, 72 h; assay type: cell-based; conditions: Homo sapiens, HCT-116, MTT, read-out: Antitumor proliferative activities of tumor cell (IC50, μM) HCT-116 (converted)
In short: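 Cells in RPMI 1640 with FBS, 4000 cells/well, exposed 72 h at 37 °C, 5% CO2 to final 50, 10, 2, 0.4 and 0.08 μM; 1% DMSO blank. MTT OD gives % inhibition versus control; IC50 derived by Bliss method.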

| IC50 [1] [µM] | IC50 (Akt1) [nM] | IC50 [2] [µM] | Compound |
| --- | --- | --- | --- |
| 1.88 | 672 | 18.3 | Cn1ncc(Cl)c1-c1cc(C(=O)N[C@@H]2CNCC[C@H]2c2ccc(C(F)(F)F)cc2)oc1Cl [Compound 44, 5-chloro-4-(4-chloro-1-methyl-1H-pyrazol-5-yl)-N-((3S,4S)-4-(4-trifluoromethylphenyl)piperidin-3-yl)furan-2-formamide] |
| 9.43 | 452 | 4.06 | Cn1ncc(Br)c1-c1csc(C(=O)N[C@H]2CNCC[C@@H]2c2ccc(F)c(F)c2)c1 [Compound 41, 4-(4-bromo-1-methyl-1H-pyrazol-5-yl)-N-((3R,4R)-4-(3,4-difluorophenyl)piperidin-3-yl)thiophene-2-formamide] |
| 6.57 | 26 | 3.31 | Cc1[nH]c(C(=O)N[C@H]2CNCC[C@@H]2c2cccc(C#N)c2)cc1-c1c(Br)cnn1C (racemic) [Compound 10, 5-methyl-4-(1-methyl-4-bromo-1H-pyrazol-5-yl)-N-(3,4-trans-4-(3-cyanophenyl)piperidin-3-yl)-1H-pyrrole-2-formamide] |
| 3.68 | 5 | 3.78 | CCc1sc(C(=O)N[C@H]2CNCC[C@@H]2c2cnc3c(c2)CCC(C)C3)cc1-c1c(C(C)C)cnn1C (stereo partly drawn) [Compound 14, 5-ethyl-4-(4-isopropyl-1-methyl-1H-pyrazol-5-yl)-N-(3,4-trans-4-(7-methyl-5,6,7,8-tetrahydroquinolin-3-yl)piperidin-3-yl)thiophene-2-formamide] |
| 1.15 | 16 | 1.56 | Cn1ncc(Cl)c1-c1ccc(C(=O)N[C@@H]2CNCC[C@H]2c2ccc(F)c(F)c2)cc1F [Compound 82, 4-(4-chloro-1-methyl-1H-pyrazol-5-yl)-N-((3S,4S)-4-(3,4-difluorophenyl)piperidin-3-yl)-3-fluorobenzamide] |
| 1.69 | 118 | 1.56 | Cn1ncc(Cl)c1-c1cc(C(=O)N[C@@H]2CNCC[C@H]2c2ccc(Cl)c(Cl)c2)oc1Cl [Compound 40, 5-chloro-4-(4-chloro-1-methyl-1H-pyrazol-5-yl)-N-((3S,4S)-4-(3,4-dichlorophenyl)piperidin-3-yl)furan-2-formamide] |
| 3.68 | 2 | 2.81 | C[C@H]1CNC[C@@H](NC(=O)c2cc(-c3c(Cl)cnn3C)c(Cl)o2)[C@@H]1c1cccc(F)c1 [Compound 136, 5-chloro-4-(4-chloro-1-methyl-1H-pyrazol-5-yl)-N-((3S, 4S, 5R)-4-(3-fluorophenyl)-5-methylpiperidin-3-yl)furan-2-formamide] |
| 4.19 | 679 | 2.84 | Cn1ncc(Br)c1-c1coc(C(=O)N[C@H]2CNC[C@@H]2c2ccc(F)c(F)c2)c1 (racemic) [Compound 68, 4-(4-bromo-1-methyl-1H-pyrazol-5-yl)-N-(3,4-trans-4-(3,4-difluorophenyl)pyrrolidin-3-yl)furan-2-formamide] |
| 14.3 | 58 | 3.45 | Cn1ncc(Cl)c1-c1cc(C(=O)N[C@H]2CNCC[C@@H]2c2ccc(Cl)c(Cl)c2)oc1Cl [Compound 39, 5-chloro-4-(4-chloro-1-methyl-1H-pyrazol-5-yl)-N-((3R,4R)-4-(3,4-dichlorophenyl)piperidin-3-yl)furan-2-formamide] |
| 9.53 | 362 | 4.51 | Cc1cc(C(=O)N[C@H]2CNCC[C@@H]2C2CCCC(Cl)C2)ncc1-c1c(Cl)cnn1C (stereo partly drawn) [Compound 56, 5-(4-chloro-1-methyl-1H-pyrazol-5-yl)-N-(3,4-trans-4-(3-chlorocyclohexane)piperidin-3-yl)-4-methylpyridinyl-2-formamide] |
| 2.04 | 9 | 0.57 | Cn1ncc(Cl)c1-c1cc(C(=O)N[C@@H]2CNC(CCN3CCCCC3)C[C@H]2c2ccc(Cl)c(Cl)c2)oc1Cl (stereo partly drawn) [Compound 108, 5-chloro-4-(4-chloro-1-methyl-1H-pyrazol-5-yl)-N-((3S,4S)-4-(3,4-dichlorophenyl)-6-(2-(piperidin-1-yl)ethyl)piperidin-3-yl)furan-2-formamide] |
| 4.54 | 18 | 1.85 | Cn1ncc(Cl)c1-c1cc(C(=O)N[C@H]2CNCC[C@@H]2c2ccc(F)c(F)c2)oc1Cl (racemic) [Compound 31, 5-chloro-4-(4-chloro-1-methyl-1H-pyrazol-5-yl)-N-(3,4-trans-4-(3,4-difluorophenyl)piperidin-3-yl)furan-2-formamide] |
| 1.41 | 0.6 | 2.82 | CNC(=O)CC1C[C@@H](c2ccc(F)c(F)c2)[C@H](NC(=O)c2ccc(-c3c(Cl)cnn3C)s2)CN1 (stereo partly drawn) [Compound 152, 5-(4-chloro-1-methyl-1H-pyrazol-5-yl)-N-((3S,4S)-4-(3,4-difluorophenyl)-6-(2-(methylamido)-2-oxoethyl)piperidin-3-yl)thiophene-2-formamide] |
| 4.61 | 120 | 11.5 | Cn1ncc(Cl)c1-c1csc(C(=O)N[C@H]2CNCC[C@@H]2c2ccc(Cl)cc2)c1 (racemic) [Compound 35, 4-(4-chloro-1-methyl-1H-pyrazol-5-yl)-N-(3,4-trans-4-(4-chlorphenyl)piperidin-3-yl)thiophene-2-formamide] |
| 2.45 | 7 | 1.21 | Cn1ncc(Cl)c1-c1ccc(C(=O)N[C@@H]2CNCC[C@H]2c2cccc(F)c2)cc1 [Compound 73, 4-(4-chloro-1-methyl-1H-pyrazol-5-yl)-N-((3S,4S)-4-(3-fluorophenyl)piperidin-3-yl)benzamide] |
| 4.69 | 0.8 | 0.92 | CC(=O)OCCC1C[C@@H](c2ccc(F)c(F)c2)[C@H](NC(=O)c2cc(-c3c(Cl)cnn3C)c(Cl)o2)CN1 (stereo partly drawn) [Compound 131, 2-((4S,5S)-5-(5-chloro-4-(4-chloro-1-methyl-1H-pyrazol-5-yl)furan-2-formamido)-4-(3,4-difluorophenyl)piperidin-2-yl)ethylacetate] |
| 3.68 | 52 | 15.8 | Cc1nc(C(=O)N[C@H]2CNCC[C@@H]2c2ccncc2)ccc1-c1c(Br)cnn1C (racemic) [Compound 58, 6-methyl-5-(4-bromo-1-methyl-1H-pyrazol-5-yl)-N-(3,4-trans-4-(pyridinyl-4-yl)piperidin-3-yl)pyridinyl-2-formamide] |
| 0.51 | 0.4 | 0.78 | Cn1ncc(Cl)c1-c1cc(C(=O)N[C@@H]2CNC(CCO)C[C@H]2c2ccc(F)c(F)c2)oc1Cl (stereo partly drawn) [Compound 129, 5-chloro-4-(4-chloro-1-methyl-1H-pyrazol-5-yl)-N-((3S,4S)-4-(3,4-difluorophenyl)-6-(2-hydroxyethyl)piperidin-3-yl)furan-2-formamide] |
| 21.4 | 238 | 3.19 | Cn1ncc(Cl)c1-c1coc(C(=O)N[C@H]2CNCC[C@@H]2c2ccc(F)c(F)c2)c1 (racemic) [Compound 25, 4-(4-chloro-1-methyl-1H-pyrazol-5-yl)-N-(3,4-trans-4-(3,4-difluorophenyl)piperidin-3-yl)furan-2-formamide] |
| 1.3 | 14 | 0.42 | Cc1cc(C(=O)N[C@@H]2CNCC[C@H]2c2ccc(Cl)c(C(F)(F)F)c2)ccc1-c1c(Cl)cnn1C [Compound 74, 4-(4-chloro-1-methyl-1H-pyrazol-5-yl)-N-((3S,4S)-4-(4-chloro-3-(trifluoromethyl)phenyl)piperidin-3-yl)-3-methylbenzamide] |
| 1.06 | 4 | 1.47 | CCc1cnn(C)c1-c1ccc(C(=O)N[C@@H]2CNCC[C@H]2c2cccc(F)c2)s1 [Compound 145, 5-(4-ethyl-1-methyl-1H-pyrazol-5-yl)-N-((3S, 4S)-4-(3-fluorophenyl)piperidin-3-yl)thiophene-2-formamide] |
